Reference: US4792545A, “Boholmycin antibiotic” (Bristol-Myers Company, priority 1986, dated 1988)
Converted amounts (≈) assume the structure as drawn. Where two headings read alike, the source gives them in different places.

Key:
K. pneumoniae D-11 [1] = assay: MIC by serial agar dilution; type: cell-based; conditions: Klebsiella pneumoniae, D11, medium A: Nutrient agar, read-out: MIC
K. pneumoniae A9678 = assay: MIC by serial agar dilution; type: cell-based; conditions: Klebsiella pneumoniae, medium A: Nutrient agar, read-out: MIC
M. flavus D-12 = assay: MIC by serial agar dilution; type: cell-based; conditions: Micrococcus flavus, D12, medium A: Nutrient agar, read-out: MIC
E. coli A20664 = assay: MIC by serial agar dilution; type: cell-based; conditions: Escherichia coli; E. coli A20664, kanamycin resistant strain; medium A: Nutrient agar; read-out: MIC
M. luteus PCI-1001 = assay: MIC by serial agar dilution; type: cell-based; conditions: Micrococcus luteus, PCI1001
Mycobacterium phlei = assay: MIC by serial agar dilution; type: cell-based; conditions: Mycolicibacterium phlei
S. marcescens A22302 = assay: MIC by serial agar dilution; type: cell-based; conditions: Serratia marcescens, A22302
E. coli NIHJ = assay: MIC by serial agar dilution; type: cell-based; conditions: Escherichia coli, medium A: Nutrient agar, read-out: MIC
P. vulgaris A9436 = assay: MIC by serial agar dilution; type: cell-based; conditions: Proteus vulgaris, medium A: Nutrient agar, read-out: MIC
S. aureus Smith [2] = assay: MIC by serial agar dilution; type: cell-based; conditions: Staphylococcus aureus
P. mirabilis A9554 = assay: MIC by serial agar dilution; type: cell-based; conditions: Proteus mirabilis, medium A: Nutrient agar, read-out: MIC
E. coli Juhl [3] = assay: in vivo efficacy in mice against experimental infection; conditions: Escherichia coli, im, 120 h, read-out: PD50
Mycobacterium 607 D46 = assay: MIC by serial agar dilution; type: cell-based; conditions: Mycobacterium 607 D46, kanamycin resistant strain; medium B: No. 1001 medium; read-out: MIC
S. marcescens A20019 = assay: MIC by serial agar dilution; type: cell-based; conditions: Serratia marcescens, A20019
E. cloacae A21006 = assay: MIC by serial agar dilution; type: cell-based; conditions: Enterobacter cloacae; E. cloacae A21006, kanamycin resistant strain; medium A: Nutrient agar; read-out: MIC
E. coli D64 = assay: stimulating growth of streptomycin-dependent E. coli D64 (paper disc); type: cell-based; conditions: for Growth zone vs E. coli D64, hazy growth zone / Growth zone vs E. coli D64: 37° C., 45 hours; for Growth zone vs E. coli D64, hazy growth zone: value in parentheses
Text: The results are shown in Table 4 wherein the term "boholmycin" is used for short in referring to boholmycin dihydrochloride tetrahydrate.

E. cloacae A20364 = assay: MIC by serial agar dilution; type: cell-based; conditions: Enterobacter cloacae; E. cloacae A20364, kanamycin resistant strain; medium A: Nutrient agar; read-out: MIC
B. anthracis IID-115 = assay: microbe, parasite or virus in culture; type: cell-based; conditions: Bacillus anthracis, IID115
S. aureus 209P = assay: MIC by serial agar dilution; type: cell-based; conditions: Staphylococcus aureus, 209P
B. subtilis ATCC6633 = assay: MIC by serial agar dilution; type: cell-based; conditions: Bacillus subtilis, medium A: Nutrient agar, read-out: MIC
E. coli Juhl [4] = assay: MIC by serial agar dilution; type: cell-based; conditions: Escherichia coli, medium A: Nutrient agar, read-out: MIC
P. aeruginosa A9843A = assay: microbe, parasite or virus in culture; type: cell-based; conditions: Pseudomonas aeruginosa, A9843A
E. coli JR35/c600 = assay: MIC by serial agar dilution; type: cell-based; conditions: Escherichia coli, JR35/C600
S. aureus Smith [5] = assay: in vivo efficacy in mice against experimental infection; conditions: Staphylococcus aureus, im, 120 h, read-out: PD50
B. subtilis PCI-219 = assay: inhibiting growth of B. subtilis PCI-219 (paper disc); type: cell-based; conditions: for Inhibition zone vs B. subtilis PCI-219: 28° C., 18 hours
Protocol: Boholmycin dihydrochloride tetrahydrate was tested in comparison with streptomycin, glebomycin, myomycin B and kanamycin in respect to stimulating growth of E. coli D64 and in respect to inhibiting growth of B. subtilis PCI-219. The results are shown in Table 4 wherein the term "boholmycin" is used for short in referring to boholmycin dihydrochloride tetrahydrate.
*^1 8 mm paper disc containing 35 μl of test solution
*^3 Incubation at 28° C. for 18 hours

K. pneumoniae D-11 [6] = assay: in vivo efficacy in mice against experimental infection; conditions: Klebsiella pneumoniae, D11, im, 120 h, read-out: PD50
Mycobacterium ranae = assay: MIC by serial agar dilution; type: cell-based; conditions: Mycobacterium
S. aureus A20239 = assay: MIC by serial agar dilution; type: cell-based; conditions: Staphylococcus aureus, A20239
P. aeruginosa A20601 = assay: MIC by serial agar dilution; type: cell-based; conditions: Pseudomonas aeruginosa; P. aeruginosa A20601, kanamycin resistant strain; medium A: Nutrient agar; read-out: MIC
P. aeruginosa A9930 = assay: MIC by serial agar dilution; type: cell-based; conditions: Pseudomonas aeruginosa, medium A: Nutrient agar, read-out: MIC
Mycobacterium 607 D87 = assay: MIC by serial agar dilution; type: cell-based; conditions: Mycobacterium, 607D87
E. coli K-12 = assay: MIC by serial agar dilution; type: cell-based; conditions: Escherichia coli, K12, medium A: Nutrient agar, read-out: MIC
[7] = Bacillus subtilis, PCI219, 18 h, read-out: Inhibition zone vs B. subtilis PCI-219

Row | Molecule | MIC (K. pneumoniae D-11 [1]) [µg/mL] | MIC (K. pneumoniae A9678) [µg/mL] | MIC (M. flavus D-12) [µg/mL] | MIC (E. coli A20664) [µg/mL] | MIC (M. luteus PCI-1001) [µg/mL] | MIC (Mycobacterium phlei) [µg/mL] | MIC (S. marcescens A22302) [µg/mL] | MIC (E. coli NIHJ) [µg/mL] | MIC (P. vulgaris A9436) [µg/mL] | MIC (S. aureus Smith [2]) [µg/mL] | MIC (P. mirabilis A9554) [µg/mL] | ED50 (E. coli Juhl [3]) [mg/kg] | MIC (Mycobacterium 607 D46) [µg/mL] | MIC (S. marcescens A20019) [µg/mL] | MIC (E. cloacae A21006) [µg/mL] | Growth zone vs E. coli D64, hazy growth zone (E. coli D64; 0.25 mg/ml) [mm] | MIC (E. cloacae A20364) [µg/mL] | MIC (B. anthracis IID-115) [µg/mL] | MIC (S. aureus 209P) [µg/mL] | MIC (B. subtilis ATCC6633) [µg/mL] | also measured
1 | [H]/N=C(/N)N[C@H]1[C@H](O)[C@@H](O)[C@H](O[C@@H]2O[C@@H](C)[C@](O)(C=O)[C@H]2O[C@@H]2O[C@@H](CO)[C@H](O)[C@@H](O)[C@@H]2NC)[C@@H](N/C(N)=N\[H])[C@@H]1O [streptomycin] | 0.4 (≈ 0.688 µM) | 6.3 (≈ 10.8 µM) | 0.8 (≈ 1.38 µM) | > 100 | 3.1 (≈ 5.33 µM) | 0.2 (≈ 0.344 µM) | > 100 | 1.6 (≈ 2.75 µM) | 0.4 (≈ 0.688 µM) | 1.6 (≈ 2.75 µM) | 1.6 (≈ 2.75 µM) | 1.4 | 0.4 (≈ 0.688 µM) | 25 (≈ 43 µM) | > 100 | 28 | > 100 | 0.4 (≈ 0.688 µM) | 1.6 (≈ 2.75 µM) | 0.8 (≈ 1.38 µM) | Growth zone vs E. coli D64, hazy growth zone (E. coli D64; 0.06 mg/ml): 14 mm; Growth zone vs E. coli D64 (E. coli D64; 0.25 mg/ml): 17 mm; MIC (E. coli Juhl [4]): 3.1 µg/mL (≈ 5.33 µM); MIC (P. aeruginosa A9843A): > 100 µg/mL; MIC (E. coli JR35/c600): > 100 µg/mL; ED50 (S. aureus Smith [5]; mice, i.m. just before challenge, S. aureus Smith, 5 days observation): 1.9 mg/kg; zone of inhibition at 60 µg/mL (B. subtilis PCI-219; [7]): 32 mm; zone of inhibition at 250 µg/mL (B. subtilis PCI-219; [7]): 35 mm; ED50 (K. pneumoniae D-11 [6]; mice, i.m. just before challenge, K. pneumoniae D-11, 5 days observation): 0.85 mg/kg; MIC (Mycobacterium ranae): 0.4 µg/mL (≈ 0.688 µM); MIC (S. aureus A20239): > 100 µg/mL; MIC (P. aeruginosa A20601): 3.1 µg/mL (≈ 5.33 µM); MIC (P. aeruginosa A9930): > 100 µg/mL; MIC (Mycobacterium 607 D87): 0.4 µg/mL (≈ 0.688 µM); MIC (E. coli K-12): 1.6 µg/mL (≈ 2.75 µM)
2 | myomycin B |  |  |  |  |  |  |  |  |  |  |  |  |  |  |  | 28 |  |  |  |  | Growth zone vs E. coli D64 (E. coli D64; 1 mg/ml): 17 mm; Growth zone vs E. coli D64, hazy growth zone (E. coli D64; 1 mg/ml): 34 mm; induction/stimulation of growth of streptomycin-dependent E. coli D64 (E. coli D64; result in words): stimulate the growth; Inhibition zone vs B. subtilis PCI-219 (B. subtilis PCI-219; 0.25 mg/ml): 29 mm; Inhibition zone vs B. subtilis PCI-219 (B. subtilis PCI-219; 1 mg/ml): 34 mm
3 | NC[C@H]1O[C@H](O[C@H]2[C@H](O)[C@@H](O[C@H]3O[C@H](CO)[C@@H](O)[C@H](N)[C@H]3O)[C@H](N)C[C@@H]2N)[C@H](O)[C@@H](O)[C@@H]1O [kanamycin] | 0.4 (≈ 0.826 µM) | 3.1 (≈ 6.4 µM) | 1.6 (≈ 3.3 µM) | > 100 | 6.3 (≈ 13 µM) | 0.4 (≈ 0.826 µM) | 50 (≈ 103 µM) | 0.8 (≈ 1.65 µM) | 0.2 (≈ 0.413 µM) | 0.4 (≈ 0.826 µM) | 0.8 (≈ 1.65 µM) | 3.5 | > 100 | 1.5 (≈ 3.1 µM) | > 100 |  | > 100 | 0.4 (≈ 0.826 µM) | 0.8 (≈ 1.65 µM) | 0.2 (≈ 0.413 µM) | MIC (E. coli Juhl [4]): 1.6 µg/mL (≈ 3.3 µM); MIC (P. aeruginosa A9843A): 6.3 µg/mL (≈ 13 µM); MIC (E. coli JR35/c600): > 100 µg/mL; ED50 (S. aureus Smith [5]): 1.1 mg/kg; zone of inhibition at 100 µg/mL (B. subtilis PCI-219; [7]): 30 mm; zone of inhibition at 400 µg/mL (B. subtilis PCI-219; [7]): 34 mm; ED50 (K. pneumoniae D-11 [6]): 1.1 mg/kg; MIC (Mycobacterium ranae): 0.2 µg/mL (≈ 0.413 µM); MIC (S. aureus A20239): > 100 µg/mL; MIC (P. aeruginosa A20601): > 100 µg/mL; MIC (P. aeruginosa A9930): 12.5 µg/mL (≈ 25.8 µM); MIC (Mycobacterium 607 D87): 0.2 µg/mL (≈ 0.413 µM); MIC (E. coli K-12): 0.8 µg/mL (≈ 1.65 µM)
